# Experiments:
# [1] = tested on: creatinine (Cr) and blood urea nitrogen (BUN); test: Cr and urea nitrogen in serum and liver of hyperuricemic mice (renal function); format: in vivo, Balb/C mice; conditions: for lowering of Cr in the serum / lowering of urea nitrogen in the liver: BHA, P<0.05
# Experimental: (§1) Due to the presence of uricase in mice, a hyperuricemic mouse model was established by using uricase inhibitor and large amounts of purine. Mice were randomly divided into five groups (n=10), including the control group (NC), model group (MC), 20 mg/kg of AL (Shimao Tianjie Pharmaceutical Co. Ltd, Jiangsu, China) group, 10 μg BHA group (10BHA) and 50 μg BHA group (50BHA). Oral administration of AL and intraperitoneal injection of BHA were administered according to the required dose, and all mice were gavage fed 20 g/kg yeast extract powder 12 h prior to the administration of AL and BHA except for NC mice for 8 days. From the 6th to 8th day, 1-h prior to AL and BHA administration, 300 mg/kg of OXO (Sigma, USA) was intraperitoneally injected to all of the mice except those in the control group. At 1 h after the final drug administration, blood was sampled from caudal veins of the mice, serum was separated and their livers were quickly collected (FIG. 3A, E). All samples were stored at −80° C. until assay measurements were performed.
# The levels of reactive oxygen species (ROS, 43355), malondialdehyde (MDA, 43124) glutathione peroxidase (GSH-Px, 43390), superoxide dismutase (SOD, 43125), catalase (CAT, 43356), creatinine (Cr, 43353) and blood urea nitrogen (BUN, 43352) in the serum and livers of mice were determined using ELISA Kits (Yuanye Bio-Technology Co. Ltd, Shanghai, China) according to the manufacturer's instructions.
# inflammation factors = test: Serum inflammation factors by ELISA in rats with MSU-induced acute gout; format: in vivo, Wistar rats; conditions: for 6-Keto-PGF1α / IFN-γ / IL-1α / IL-1β / IL-6 / IL-8 / IL-10 / IL-16 / IP-10 / MCP-1 / MIP-1α / NF-κB / PGE2 / TNF-α / TNF-β: serum, MSU-induced acute gout rats, mean ± S.D., n=10
# Experimental: (§2) An experimental model of MSU-induced gouty arthritis was used in order to evaluate the anti-inflammatory activities of BHA. Rats were randomly divided into five groups (n=10), include a control group (NC), a model group (MC), a 0.3 mg/kg colchicine group (COL), a 10 μg BHA group (10BHA) and a 50 μg BHA group (50BHA). MSU crystals were suspended in 0.9% sterile saline (30 mg/mL) prior to use. The colchicine group rats were orally administrated colchicine (0.3 mg/kg) for 8 days, and all rats except for the control group were injected with 3 mg of MSU (Sigma, USA) at the 6th day into the right ankle synovial space 1 h after gavage feeding. Meanwhile a turbid sample of MSU mixed with 100 μg of BHA or 500 μg of BHA per mL of solution for 10BHA rats or 50BHA rats. At the 8th day, 1 h after the administration of the final agents, blood was sampled from the caudal veins of the rats and the right ankle joints of the rats were collected and fixed in 4% paraformaldehyde. Serum was separated and stored at −80° C. prior to analysis (FIG. 2A, E).
# The serum levels of interleukin-1α (IL-1α, 41734), IL-1β (43360), interleukin-6 (IL-6, 41731), interleukin-8 (IL-8, 41716), IL-10 (41736), interleukin-16 (IL-16, 41628), C—X—C motif chemokine 10 (CXCL10, 41570), monocyte chemoattractant protein 1 (MCP-1, 41640), macrophage inflammatory protein 1α (MIP-1α, 41645), interferon gamma (IFN-γ, 41739), TNF-α (41721), tumor necrosis factor-β (TNF-β, 41673), nuclear factor κ-light-chain-enhancer of activated B cells (NF-κB, 43358), 6-keto-prostaglandin F-1α (6-Keto-PGF1α, 41809) and prostaglandin E2 (PGE2, 41609) in rats were determined by the ELISA method using related Elisa Kits (Yuanye Bio-Technology Co. Ltd, Shanghai, China) according to the manufacturer's instructions.
# xanthine oxidase (XO) = test: XO levels in serum and liver of hyperuricemic mice; format: in vivo, Balb/C mice
# Experimental: as §1
# The serum UA concentrations and XO levels in the serum and liver were determined with a standard diagnostic kit (MAK077, MAK078 Sigma, USA) according to the manufacturer's instructions.
# [2] = tested on: rats with MSU-induced acute gout; test: MSU crystal-induced acute gout in rats: ankle swelling ratio; format: in vivo, Wistar rats; conditions: P<0.01; for ankle swelling in comparison with the MSU treated group: at 4 h, 12 h and 48 h
# Experimental: Male Wistar rats (n=50, 8 weeks: 160-200 g) were purchased from Liaoning Changsheng Biotechnology Company Ltd, Jilin, China (SCXK (Liao)-2015-0001). These rats were housed in plastic cages and maintained on a 12-h light/12-h dark cycle (lights on 7:00-19:00 h) under standard laboratory conditions of 55% relative humidity and at 23° C.±1° C. They were given standard chow (Liaoning Changsheng Biotechnology Company Ltd, Jilin, China) and tap water ad libitum. All experimental procedures were approved by the Animal Ethics Committee of Jilin University (Reference NO. 201605).
# as §2
# The right ankle circumferences of all rats at 0, 4, 12, 24 and 48 h after MSU injection were measured. The swelling ratio (%) was used to evaluate the gouty arthritis and calculated according to the change of the circumference via the formula: Swelling ratio (%)=(Ct−C0)/C0, wherein, Ct represented the circumference at time t (in h) and C0 represented the circumference at 0 h.
# [3] = 10 μg BHA intra-articular with MSU (10BHA)
# [4] = 50 μg BHA intra-articular with MSU (50BHA)
substance,measurement,setting,value
N-butyrylated HA [BHA],lowering of Cr in the liver,"[1]; 10 μg BHA, P<0.01",8.14%
same,lowering of Cr in the serum,[1]; second value listed (10 μg),8.21%
same,lowering of urea nitrogen in the liver,[1]; second value listed (10 μg),11.65%
same,lowering of Cr in the serum,[1]; third value listed (50 μg),12.02%
same,lowering of urea nitrogen in the liver,[1]; third value listed (50 μg),12.81%
same,decrease of serum IL-8 compared to rats injected with MSU,"inflammation factors; 10 μg BHA, P<0.05",7.13%
same,decrease of serum MCP-1 compared to rats injected with MSU,"inflammation factors; 10 μg BHA, P<0.05",7.76%
same,increase of serum IL-10 compared to rats injected with MSU,"inflammation factors; 10 μg BHA, P<0.05",9.49%
same,decrease of serum IFN-γ compared to rats injected with MSU,"inflammation factors; 50 μg BHA, P<0.05",33.18%
same,decrease of serum IL-1β compared to rats injected with MSU,"inflammation factors; 50 μg BHA, P<0.05",5.56%
same,decrease of serum IL-8 compared to rats injected with MSU,"inflammation factors; 50 μg BHA, P<0.05",6.55%
same,decrease of serum MCP-1 compared to rats injected with MSU,"inflammation factors; 50 μg BHA, P<0.05",15.58%
same,6-Keto-PGF1α,inflammation factors; [3],257 ± 20.8
same,IFN-γ,inflammation factors; [3],107.4 ± 7.6 pg/mL
same,IL-1α,inflammation factors; [3],71.5 ± 11.2 pg/mL
same,IL-1β,inflammation factors; [3],19.6 ± 1.6 pg/mL
same,IL-6,inflammation factors; [3],78.5 ± 5.6 pg/mL
same,IL-8,inflammation factors; [3],213.8 ± 11.4 pg/mL
same,IL-10,inflammation factors; [3],12 ± 0.9 pg/mL
same,IL-16,inflammation factors; [3],399.3 ± 14.8 pg/mL
same,IP-10,inflammation factors; [3],154.3 ± 18^ pg/mL
same,MCP-1,inflammation factors; [3],321.2 ± 20.5 pg/mL
same,MIP-1α,inflammation factors; [3],282.8 ± 23.6 pg/mL
same,NF-κB,inflammation factors; [3],589.8 ± 104. pg/mL
same,PGE2,inflammation factors; [3],209.7 ± 17.3 pg/mL
same,TNF-α,inflammation factors; [3],155.9 ± 11.4 pg/mL
same,TNF-β,inflammation factors; [3],139.1 ± 25.7 pg/mL
same,6-Keto-PGF1α,inflammation factors; [4],262 ± 10.8
same,IFN-γ,inflammation factors; [4],75.4 ± 31.7 pg/mL
same,IL-1α,inflammation factors; [4],77.4 ± 13 pg/mL
same,IL-1β,inflammation factors; [4],18.8 ± 0.8 pg/mL
same,IL-6,inflammation factors; [4],75 ± 5.3 pg/mL
same,IL-8,inflammation factors; [4],216.6 ± 11.6 pg/mL
same,IL-10,inflammation factors; [4],11.6 ± 1.1 pg/mL
same,IL-16,inflammation factors; [4],401.2 ± 25.1 pg/mL
same,IP-10,inflammation factors; [4],150.5 ± 7.5 pg/mL
same,MCP-1,inflammation factors; [4],292 ± 27.8 pg/mL
same,MIP-1α,inflammation factors; [4],283.9 ± 12.7 pg/mL
same,NF-κB,inflammation factors; [4],513 ± 74.1 pg/mL
same,PGE2,inflammation factors; [4],193.2 ± 12.7 pg/mL
same,TNF-α,inflammation factors; [4],152.7 ± 12.1 pg/mL
same,TNF-β,inflammation factors; [4],129 ± 21.9 pg/mL
same,reduction of XO levels in the liver compared to untreated mice,"xanthine oxidase (XO); 10 μg BHA, P<0.05",19.78%
same,XO activity in the livers of hyperuricemic mice,xanthine oxidase (XO); 50 μg BHA,no significant effect on XO activity
same,swelling ratio reduction,"[2]; 10 μg BHA, at 12 h (best suppression)",11.0%
same,swelling ratio reduction,"[2]; 50 μg BHA, at 48 h (best suppression)",9.5%
same,ankle swelling in comparison with the MSU treated group,[2]; BHA 10 μg,suppressed the ankle swelling
same,ankle swelling in comparison with the MSU treated group,[2]; BHA 50 μg,suppressed the ankle swelling

# Source: US11679123B2, “N-acylated hyaluronic acid for hyperuricemia and gouty arthritis” (Queen's University at Kingston, priority 2018, dated 2023)
